According to patent US11261175B2 (priority 2017, dated 2022):
pEC50: −log10 of the molar value.

Assays:
Format in all cases: cell-based
[1] = test system: HCV genotype 1b replicon with NS5A L31V+Y93H (double mutant); assay: Transiently transfected assay of genotype 1b resistance mutant RNA L31V+Y93H (double mutant); conditions: Hepatitis C virus, Huh-7.5.1, 72 h, read-out: HCV Mutation L31V + Y93H
Method in brief: (§1)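 Huh7.5.1 cells were electroporated with in vitro-transcribed, ScaI-linearized replicon RNAs carrying the Daclatasvir-resistance substitutions, then seeded 4 h later into DMEM with serially diluted compound. After 3 days, intracellular luciferase activity was read and normalized to mock-treated cells.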

[2] = test system: HCV genotype 1b replicon with NS5A L31V mutation; assay: Transiently transfected assay of genotype 1b resistance mutant RNA L31V; conditions: Hepatitis C virus, Huh-7.5.1, 72 h, read-out: HCV Mutation L31V
Method in brief: as §1

[3] = test system: HCV replicon S52-Feo (genotype 3a); assay: Anti-HCV activity using HCV replicon S52-Feo (genotype 3a) in Huh 7.5.1 cells, luciferase readout; conditions: Hepatitis C virus, 72 h; Huh 7.5.1 cells with S52-Feo replicon, 3 days, firefly luciferase; read-out: HCV wt. GT-3a
[4] = test system: HCV genotype 1b replicon with NS5A Y93H mutation; assay: Transiently transfected assay of genotype 1b resistance mutant RNA Y93H; conditions: Hepatitis C virus, Huh-7.5.1, 72 h, read-out: HCV Mutation Y93H
Method in brief: as §1

[5] = test system: HCV replicon NK5.1-Gluc (genotype 1b); assay: Anti-HCV activity using HCV replicon NK5.1-Gluc (genotype 1b) in Huh 7.5.1 cells, luciferase readout; conditions: Hepatitis C virus, 72 h; Huh 7.5.1 cells with NK5.1-Gluc replicon, 3 days, Gaussia luciferase; read-out: HCV wt. GT-1b
[6] = test system: JFH5a-Rluc-ad34 virus (HCV GT-2a); assay: Anti-HCV activity using HCVcc (JFH5a-Rluc-ad34 virus) in Huh 7.5.1 cells, Renilla luciferase readout; conditions: Hepatitis C virus, GT2A, Huh-7.5.1, 72 h, read-out: HCV wt. GT-2a
Method in brief: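 Huh 7.5.1 cells were inoculated with JFH5a-Rluc-ad34, a JFH1-derived virus with adaptive E2/p7 mutations, for 4 h before serially diluted compound was added. Intracellular Renilla luciferase was read after three days and normalized to mock-treated controls.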

| SMILES | pEC50 [1] | pEC50 [2] | pEC50 [3] | pEC50 [4] | pEC50 [5] | pEC50 [6] |
| --- | --- | --- | --- | --- | --- | --- |
| CCCCC1(CCCC)c2cc(NC(=O)[C@@H]3CCCN3C(=O)[C@H](NC(=O)OC)c3ccccc3)ccc2-c2ccc(NC(=O)[C@@H]3CCCN3C(=O)[C@H](NC(=O)OC)c3ccccc3)cc21 [Example 2, dimethyl ((1R,1′R)-((2S,2′S)-(((9,9-dibutyl-9H-fluorene-2,7-diyl)bis(azanediyl))bis(carbonyl))bis(pyrrolidine-2,1-diyl))bis(2-oxo-1-phenylethane-2,1-diyl))dicarbamate] | 7.00 to 9.00 | 11.00 to 12.00 | 10.00 to 11.00 | 9.00 to 10.00 | 11.00 to 12.00 | 7.00 to 9.00 |
| CCCCC1(CCCC)c2cc(NC(=O)[C@@H]3CC4(CN3C(=O)[C@H](NC(=O)OC)c3ccccc3)OCCO4)ccc2-c2ccc(-c3cnc([C@@H]4CCCN4C(=O)[C@@H](NC(=O)OC)C(C)C)[nH]3)cc21 [Example 14, methyl ((S)-1-((S)-2-(5-(9,9-dibutyl-7-((S)-7-((R)-2-((methoxycarbonyl)amino)-2-phenylacetyl)-1,4-dioxa-7-azaspiro[4.4]nonane-8-carboxyamido)-9H-fluorene-2-yl)-1H-imidazole-2-yl)pyrrolidine-1-yl)-3-methyl-1-oxobutane-2-yl)carbamate] | 7.00 to 9.00 | 11.00 to 12.00 | 10.00 to 11.00 | 11.00 to 12.00 | 11.00 to 12.00 | 10.00 to 11.00 |
| CCCCC1(CCCC)c2cc(NC(=O)[C@@H]3C[C@@H](OC(=O)CN4CCOCC4)CN3C(=O)[C@H](NC(=O)OC)c3ccccc3)ccc2-c2ccc(NC(=O)[C@@H]3C[C@@H](OC(=O)CN4CCOCC4)CN3C(=O)[C@H](NC(=O)OC)c3ccccc3)cc21 [Example 33, (3R,3′R,5S,5S,52R)-5,5′-(9,9-dibutyl-9H-fluorene-2,7-diyl)bis(azanediyl)bis(oxomethylene)bis(1-((R)-2-(methoxycarbonylamino)-2-phenylacetyl)pyrrolidine-5,3-diyl) bis(2-morpholinoacetate)] | 9.00 to 10.00 | 10.00 to 11.00 | 9.00 to 10.00 | 10.00 to 11.00 | 10.00 to 11.00 | 9.00 to 10.00 |
| CCCCC1(CCCC)c2cc(NC(=O)[C@@H]3C[C@@H](O)CN3C(=O)[C@H](NC(=O)OC)c3ccccc3)ccc2-c2ccc(NC(=O)[C@@H]3C[C@@H](O)CN3C(=O)[C@H](NC(=O)OC)c3ccccc3)cc21 [Example 29, dimethyl ((1R,1′R)-((3R,3′R,5S,5′S)-(((9,9-dibutyl-9H-fluorene-2,7-diyl)bis(azanediyl))bis(carbonyl))bis(3-hydroxypyrrolidine-5,1-diyl))bis(2-oxo-1-phenylethane-2,1-diyl))dicarbamate] | 10.00 to 11.00 | 10.00 to 11.00 | 10.00 to 11.00 | 10.00 to 11.00 | 11.00 to 12.00 | 9.00 to 10.00 |
| CCC1(CC)c2cc(NC(=O)[C@@H]3CCCN3C(=O)[C@H](NC(=O)OC)c3ccccc3)ccc2-c2ccc(NC(=O)[C@@H]3CCCN3C(=O)[C@H](NC(=O)OC)c3ccccc3)cc21 [Example 30, dimethyl (1R,1′R)-2,2′-((2S,2′S)-2,2′-(9,9-diethyl-9H-fluorene-2,7-diyl)bis(azanediyl)bis(oxomethylene)bis(pyrrolidine-2,1-diyl))bis(2-oxo-1-phenylethane-2,1-diyl)dicarbamate] | < 7.00 | 9.00 to 10.00 | 9.00 to 10.00 | 7.00 to 9.00 | 10.00 to 11.00 | 9.00 to 10.00 |
| CCCCC1(CCCC)c2cc(NC(=O)[C@@H]3C[C@@H](O)CN3C(=O)[C@H](NC(=O)OC)c3ccccc3)ccc2-c2ccc(NC(=O)[C@@H]3C[C@H](COC)CN3C(=O)[C@H](NC(=O)OC)c3ccccc3)cc21 [Example 38, methyl ((R)-2-((2S,4S)-2-((9,9-dibutyl-7-((2S,4R)-4-hydroxy-1-((R)-2-((methoxycarbonyl)amino)-2-phenylacetyl)pyrrolidine-2-carboxyamido)-9H-fluorene-2-yl)carbamoyl)-4-(methoxymethyl)pyrrolidine-1-yl)-2-oxo-1-phenylethyl)carbamate] | 10.00 to 11.00 | 11.00 to 12.00 | 10.00 to 11.00 | 11.00 to 12.00 | 10.00 to 11.00 | 9.00 to 10.00 |
